Measured values: patent US20260226069A1, “GCN2 AND PERK KINASE MODULATORS AND METHODS OF USE THEREOF” (Deciphera Pharmaceuticals, LLC, priority 2023, published 2026)

Legend:
[1] = tested on: ATF4 in H929 Multiple Myeloma cells; test: H929 ATF4 ELISA assay; assay type: cell-based; conditions: four hours, fold stimulation of cellular ATF4 relative to vehicle treated control
Protocol: H929 multiple myeloma cells (catalog #CRL-9068) were obtained from the American Type Culture Collection (ATTC, Manassas, VA). Briefly, cells were grown in RPMI-1640 medium supplemented with 20% heat-inactivated fetal bovine serum (catalog #A3840002, ThermoFisher Scientific, Waltham, MA), 1% Penicillin/Streptomycin/L-Glutamine (catalog #10378016, ThermoFisher Scientific, Waltham, MA), and 0.05 mM 2-mercaptoethanol (catalog #21985-023, ThermoFisher Scientific, Waltham, MA) at 37° C., 5% CO2, and 95% humidity. Cells were expanded until reaching one million five hundred thousand cells per mL at which time they were sub-cultured or harvested for assay use. One million five hundred thousand cells per well in 1 mL complete growth medium were dispensed into 12-well plates and incubated overnight. A serial dilution of test compound was added, and cells were incubated at 37° C., 5% CO2, and 95% for four hours. Cells were lysed then ATF4 levels were measured using an ELISA assay (Proteintech, Rosemont, IL). Absorbance is measured at 450 nm and 544 nM using a Synergy2 or equivalent reader (Biotek, Winooski VT). Data were analyzed using PRISM software (Graphpad, San Diego, CA) to calculate fold stimulation of cellular ATF4 relative to vehicle treated control.

PERK kinase = target: T1, PERK kinase (Homo sapiens, UniProt Q9NZJ5, A704S); test: Biochemical assay for PERK (coupled pyruvate kinase/lactate dehydrogenase assay); conditions: 10 nM PERK, 1 mM ATP, reaction rate 2-3 h time frame, 30° C.
T1 construct: GST (with thrombin site LVPRGS); purchased Beryllium
Protocol: Biochemical Assay for PERK
Activity of PERK kinase was determined spectroscopically using a coupled pyruvate kinase/lactate dehydrogenase assay that continuously monitors the ATP hydrolysis-dependent oxidation of NADH (Science, 2000, 289, 1938-1942). Assays were conducted in 384-well plates (100 μL final volume) using 10 nM PERK (from Beryllium), 0.25 mg/mL Myelin Basic Protein substrate, 1.5 units pyruvate kinase, 2.1 units lactate dehydrogenase, 1 mM phosphoenol pyruvate, 0.28 mM NADH and 1 mM ATP in assay buffer (100 mM Tris, pH 7.5, 15 mM MgCl2, 0.5 mM DTT, 0.004% (w/v) BSA, and 0.004% Triton X-100). Inhibition of PERK was measured by adding serial diluted test compound (final assay concentration of 1% DMSO). A decrease in absorption at 340 nm was monitored continuously for 6 hours at 30° C. on a multi-mode microplate reader (BioTek). The reaction rate was calculated using the 2-3 h time frame. The reaction rate at each concentration of compound was converted to percent inhibition using controls (i.e., reaction with no test compound and reaction with a known inhibitor) and IC50 values were calculated using software routines in Prism (GraphPad software).

[2] = tested on: ATF4 in Thapsigargin stimulated CCRF-CEM cells; test: CCRF-CEM TG ATF4 ELISA, phenotypic assay for cellular inhibition of PERK preactivated by thapsigargin; assay type: cell-based; conditions: Homo sapiens, 3 h, compound three hours then 1 μM thapsigargin for an additional hour
Protocol: CCRF-CEM TG ATF4 ELISA, a Phenotypic Assay for Cellular Inhibition of PERK Preactivated by Thapsigargin (TG)
CCRF-CEM leukemia cells (catalog #CCL-116) were obtained from the American Type Culture Collection (ATTC, Manassas, VA). Briefly, cells were grown in RPMI-1640 medium supplemented with 10% heat-inactivated fetal bovine serum (Invitrogen, Carlsbad, CA) and 1% Penicillin/Streptomycin/L-Glutamine at 37° C., 5% CO2, and 95% humidity. Cells were expanded until reaching one million cells per mL at which time they were subcultured or harvested for assay use. One million five hundred thousand cells per well in 1 mL complete growth medium were dispensed into 12-well plates and incubated overnight. A serial dilution of test compound was added and cells were incubated at 37° C., 5% CO2, and 95% for three hours, then 1 μM thapsigargin was added and cells were incubated for an additional hour at 37° C., 5% CO2, and 95%. Cells were lysed then ATF4 levels were measured using an ELISA assay (Proteintech, Rosemont, IL). Absorbance was measured at 450 nm and 544 nM using a Synergy2 or equivalent reader (Biotek, Winooski VT). Data was analyzed using PRISM software (Graphpad, San Diego, CA) to calculate IC50 values.

GCN2 kinase = target: T2, GCN2 kinase (Homo sapiens, UniProt Q9P2K8); test: Biochemical assay for GCN2 (TR-FRET kinase activity assay); conditions: 2 nM GCN2, 1 mM ATP, 3-hour incubation
T2 construct: G556E with a; purchased Carna Biosciences
Protocol: Biochemical assay for GCN2
Activity of GCN2 kinase was determined using a TR-FRET kinase activity assay (e.g., Analytical Biochemistry, 2006, 356, 108-116). Assays were conducted in 384-well plates (13 μL assay volume) using 2 nM GCN2 (Carna Biosciences), 130 nM GFP-EIf2α (Invitrogen), 0.2 mg/mL E. coli tRNA (sigma) and 1 mM ATP in kinase buffer (Invitrogen). Inhibition of GCN2 was measured by adding serial diluted test compound (final assay concentration of 0.5% DMSO) followed by a 3-hour incubation. Tb-peIF2α (pSer52) antibody (Invitrogen) (2 nM final assay concentration) in kinase buffer containing EDTA (final assay concentration of 20 mM) was added. After a 60 min incubation at room temperature, TR-FRET was monitored using an excitation wavelength of 340 nm and emission wavelengths of 490 nm and 520 nm. The emission ratio (520/490) at each compound concentration of was converted to percent inhibition using controls (i.e., reaction with no test compound and reaction with a known inhibitor) and IC50 values were calculated by fitting a four-parameter sigmoidal curve to the data using Prism (GraphPad software).

[3] = tested on: ASNase treated CCRF-CEM cells; test: CCRF-CEM ASNase cell proliferation assay, phenotypic assay for cellular inhibition of GCN2; assay type: cell-based; conditions: Homo sapiens, 1 mU/mL ASNase, 72 h, resazurin
Protocol: CCRF-CEM ASNase Cell Proliferation Assay, a Phenotypic Assay for Cellular Inhibition of GCN2.
CCRF-CEM leukemia cells (catalog #CCL-116) were obtained from the American Type Culture Collect (ATTC, Manassas, VA). Cells were grown in RPMI-1640 medium supplemented with 10% heat-inactivated fetal bovine serum (Invitrogen, Carlsbad, CA) and 1% Penicillin/Streptomycin/L-Glutamine at 37° C., 5% CO2, and 95% humidity. Cells were expanded until reaching one million cells per mL at which time they are subcultured or harvested for assay use. Ten thousand cells per well in 200 μL RPMI-1640 supplemented with 10% heat-inactivated fetal bovine serum and 1% Penicillin/Streptomycin were dispensed into a 96-well black clear bottom plate. A serial dilution of test compound and 1 mU/mL ASNase was added in triplicate and plates were incubated for 72 h at 37° C., 5% CO2, and 95% humidity. At the end of the incubation, 40 μL of a […] solution of resazurin (Sigma, St. Louis, MO) in PBS was added to each well of the plate and plates were incubated for an additional 6 h at 37° C., 5% CO2, and 95% humidity. Plates were read on a Synergy2 or equivalent reader (Biotek, Winooski VT) using an excitation of 540 nm and an emission of 600 nm. Data was analyzed using GraphPad Prism software (GraphPad, San Diego, CA) to calculate IC50 values.

T1 sequence (Q9NZJ5 with tags, fused parts or gaps A704S): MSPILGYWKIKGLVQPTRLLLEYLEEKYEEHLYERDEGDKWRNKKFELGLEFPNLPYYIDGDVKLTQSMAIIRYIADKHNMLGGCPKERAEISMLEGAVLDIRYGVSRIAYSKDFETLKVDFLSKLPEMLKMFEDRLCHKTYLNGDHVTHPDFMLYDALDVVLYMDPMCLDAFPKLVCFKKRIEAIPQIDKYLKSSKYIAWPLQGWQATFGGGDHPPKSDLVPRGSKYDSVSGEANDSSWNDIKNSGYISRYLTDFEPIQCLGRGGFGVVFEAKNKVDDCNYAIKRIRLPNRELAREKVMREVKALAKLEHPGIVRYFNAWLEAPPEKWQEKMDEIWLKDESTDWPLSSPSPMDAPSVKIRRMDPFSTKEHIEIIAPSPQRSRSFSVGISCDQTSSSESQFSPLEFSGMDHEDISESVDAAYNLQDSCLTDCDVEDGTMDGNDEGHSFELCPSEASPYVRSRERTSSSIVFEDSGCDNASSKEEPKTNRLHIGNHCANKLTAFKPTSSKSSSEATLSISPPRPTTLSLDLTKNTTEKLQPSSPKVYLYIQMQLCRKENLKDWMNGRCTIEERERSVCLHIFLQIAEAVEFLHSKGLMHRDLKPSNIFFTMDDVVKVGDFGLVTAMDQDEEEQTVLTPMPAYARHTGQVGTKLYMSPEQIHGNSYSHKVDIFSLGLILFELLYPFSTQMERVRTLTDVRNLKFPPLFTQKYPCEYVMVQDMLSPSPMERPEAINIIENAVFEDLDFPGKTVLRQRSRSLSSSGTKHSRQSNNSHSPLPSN

Compound | IC50 (PERK kinase) [nM] | IC50 [2] [nM] | IC50 (GCN2 kinase) [nM] | IC50 [3] [nM] | H929 NS ATF4 ELISA [1]
CC(C)c1nc(-c2cccc(NS(=O)(=O)c3cc(Cl)cc(CO)c3Cl)c2F)c2c(N)nccn12 [Example 16] | ≤ 100 | 100 to 500 | ≤ 100 | ≤ 100 | +++ (an ATF4 stim greater than 10-fold and less than or equal to 20-fold)
Nc1nccn2c(-c3ccccc3)nc(-c3cccc(NS(=O)(=O)c4cc(Cl)cc(CO)c4Cl)c3F)c12 [Example 12] | ≤ 100 | 500 to 1000 | ≤ 100 | 100 to 500 | ++++ (an ATF4 stim greater than 20-fold)
Nc1ncnn2ccc(-c3cccc(NS(=O)(=O)c4cc(Cl)cc(CO)c4Cl)c3F)c12 [Example 3] | ≤ 100 | 100 to 500 | 100 to 500 | 100 to 500 | ++ (an ATF4 stim greater than 5-fold and less than or equal to 10-fold)
Nc1nccn2c(C3CCC3)nc(-c3cccc(NS(=O)(=O)c4cc(Cl)cc(CO)c4Cl)c3F)c12 [Example 17] | ≤ 100 | 100 to 500 | ≤ 100 | 100 to 500 | +++ (an ATF4 stim greater than 10-fold and less than or equal to 20-fold)
NC(=O)c1cc(-c2cccc(NS(=O)(=O)c3cc(Cl)cc(CO)c3Cl)c2F)c2c(N)ncnn12 [Example 18] | ≤ 100 | 500 to 1000 | ≤ 100 | 100 to 500 | ++ (an ATF4 stim greater than 5-fold and less than or equal to 10-fold)
Nc1nccn2c(-c3cn[nH]c3)nc(-c3cccc(NS(=O)(=O)c4cc(Cl)cc(CO)c4Cl)c3F)c12 [Example 19] | ≤ 100 | 500 to 1000 | ≤ 100 | 100 to 500 | ++ (an ATF4 stim greater than 5-fold and less than or equal to 10-fold)
CC(=O)OCc1cc(Cl)cc(S(=O)(=O)Nc2cccc(-c3nc(C)n4ccnc(N)c34)c2F)c1Cl [Example 1, 3-(N-(3-(8-amino-3-methylimidazo[1,5-a]pyrazin-1-yl)-2-fluorophenyl)sulfamoyl)-2,5-dichlorobenzyl acetate] | 100 to 500 | 500 to 1000 | 1000 to 10000 | 500 to 1000 | ++++ (an ATF4 stim greater than 20-fold)
Nc1nccn2c(C3CC3)nc(-c3cccc(NS(=O)(=O)c4cc(Cl)cc(CO)c4Cl)c3F)c12 [Example 14] | ≤ 100 | 100 to 500 | ≤ 100 | ≤ 100 | ++ (an ATF4 stim greater than 5-fold and less than or equal to 10-fold)
Cc1cc(-c2cccc(NS(=O)(=O)c3cc(Cl)cc(CO)c3Cl)c2F)c2c(N)ncnn12 [Example 13] | ≤ 100 | 100 to 500 | 100 to 500 | 100 to 500 | +++ (an ATF4 stim greater than 10-fold and less than or equal to 20-fold)

More lines, main results first:

IC50 (PERK kinase) [nM] | IC50 [2] [nM] | IC50 (GCN2 kinase) [nM] | IC50 [3] [nM] | Compound | H929 NS ATF4 ELISA [1]
≤ 100 | ≤ 100 | ≤ 100 | ≤ 100 | Cn1cc(-c2nc(-c3cccc(NS(=O)(=O)c4cc(Cl)cc(CO)c4Cl)c3F)c3c(N)nccn23)cn1 [Example 20] | ++ (an ATF4 stim greater than 5-fold and less than or equal to 10-fold)
≤ 100 | 100 to 500 | 500 to 1000 | 1000 to 10000 | Cn1cc(-c2cccc(NS(=O)(=O)c3cc(Cl)cc(/C=N\O)c3Cl)c2F)c2c(N)ncnc21 [Example 52, (Z)—N-(3-(4-amino-7-methyl-7H-pyrrolo[2,3-d]pyrimidin-5-yl)-2-fluorophenyl)-2,5-dichloro-3-((hydroxyimino)methyl)benzenesulfonamide] | ++++ (an ATF4 stim greater than 20-fold)
≤ 100 | 100 to 500 | 1000 to 10000 | 1000 to 10000 | Cn1cc(-c2cccc(NS(=O)(=O)c3cc(F)c(Br)cc3F)c2F)c2c(N)ncnc21 [Example 38] | + (an ATF4 stim less than or equal to 5-fold)
≤ 100 | 100 to 500 | ≤ 100 | 100 to 500 | CSc1nc(-c2cccc(NS(=O)(=O)c3cc(Cl)cc(CO)c3Cl)c2F)c2c(N)nccn12 [Example 21] | +++ (an ATF4 stim greater than 10-fold and less than or equal to 20-fold)
≤ 100 | 100 to 500 | ≤ 100 | 100 to 500 | CNc1nc(-c2cccc(NS(=O)(=O)c3cc(Cl)cc(CO)c3Cl)c2F)c2c(N)nccn12 [Example 26] | ++ (an ATF4 stim greater than 5-fold and less than or equal to 10-fold)
≤ 100 | 100 to 500 | ≤ 100 | 100 to 500 | CNC(=O)c1nc(-c2cccc(NS(=O)(=O)c3cc(Cl)cc(CO)c3Cl)c2F)c2c(N)nccn12 [Example 22] | ++++ (an ATF4 stim greater than 20-fold)
≤ 100 | 1000 to 10000 | 1000 to 10000 | 1000 to 10000 | COc1ncc(Cl)cc1S(=O)(=O)Nc1cc(F)c(F)c(-c2cn(C)c3ncnc(N)c23)c1 [Example 43] | + (an ATF4 stim less than or equal to 5-fold)
